Reference: patent US20240108602A1, “TREATMENT OF MENTAL DISORDERS” (GH Research Ireland Limited, priority 2022, published 2024)
“And” between values parts separate entries of the source, which are not always exact repeats. Equal values may be shown once.

System: patients with treatment-resistant major depressive disorder (TRD)
Experiment: Phase 1/2 clinical trial of inhaled 5-MeO-DMT in TRD patients (12 mg, 18 mg, individualized dosing regimen IDR 6/12/18 mg)
Description: Patients were assigned to different groups. In the context of the present invention, the group who received a single, 12 mg dose and the group who underwent an intra-day individualized dosing regimen (IDR) that allowed for multiple, escalating doses (6 mg, 12 mg and 18 mg) within a single day, driven by the intensity of the patient-reported psychedelic experience are of interest.
The data gathered include the assessment of the treated patients against several scales including the Montgomery-Åsberg Depression Rating Scale (MADRS) and the Brief Psychiatric Rating Scale (BPRS).
This trial was designed in two parts. Part A was an open-label, single-arm, single-dose Phase 1 trial with two dose levels (12 mg (n=4) and 18 mg (n=4)). […] The primary endpoint of Part B was to assess the effects on the severity of depression, as assessed by the proportion of patients in remission on day seven after dosing, defined as a MADRS total score of less than or equal to 10.

SMILES: COc1ccc2[nH]cc(CCN(C)C)c2c1 [5-MeO-DMT]
- MADRS Concentration Difficulties improvement (points) (IDR n=8, 2 h): 19
- MADRS Concentration Difficulties percentage improvement (IDR n=8, 2 h): 63% and 63.33%
- MADRS Concentration Difficulties summed score (IDR n=8, 2 h): 11
- MADRS Inability to Feel improvement (points) (IDR n=8, 2 h): 24
- MADRS Inability to Feel percentage improvement (IDR n=8, 2 h): 67% and 66.67%
- MADRS Inability to Feel summed score (IDR n=8, 2 h): 12
- MADRS Inner Tension improvement (points) (IDR n=8, 2 h): 15
- MADRS Inner Tension percentage improvement (IDR n=8, 2 h): 58% and 57.69%
- MADRS Inner Tension summed score (IDR n=8, 2 h): 11
- MADRS Lassitude improvement (points) (IDR n=8, 2 h): 17
- MADRS Lassitude percentage improvement (IDR n=8, 2 h): 63% and 62.96%
- MADRS Lassitude summed score (IDR n=8, 2 h): 10
- MADRS Pessimistic Thoughts improvement (points) (IDR n=8, 2 h): 21
- MADRS Pessimistic Thoughts percentage improvement (IDR n=8, 2 h): 75%
- MADRS Pessimistic Thoughts summed score (IDR n=8, 2 h): 7
- MADRS Suicidal Thoughts improvement (points) (IDR n=8, 2 h): 8
- MADRS Suicidal Thoughts percentage improvement (IDR n=8, 2 h): 73% and 72.72%
- MADRS Suicidal Thoughts summed score (IDR n=8, 2 h): 3
- BPRS Anxiety improvement (points) (IDR n=8, 3 h): 18
- BPRS Anxiety percentage improvement (IDR n=8, 3 h): 49% and 48.65%
- BPRS Anxiety summed score (IDR n=8, 3 h): 19
- BPRS Blunted Affect improvement (points) (IDR n=8, 3 h): 4
- BPRS Blunted Affect percentage improvement (IDR n=8, 3 h): 27% and 26.67%
- BPRS Blunted Affect summed score (IDR n=8, 3 h): 11
- BPRS Emotional Withdrawal improvement (points) (IDR n=8, 3 h): 5
- BPRS Emotional Withdrawal percentage improvement (IDR n=8, 3 h): 38% and 38.46%
- BPRS Emotional Withdrawal summed score (IDR n=8, 3 h): 8
- BPRS Guilt Feelings improvement (points) (IDR n=8, 3 h): 20
- BPRS Guilt Feelings percentage improvement (IDR n=8, 3 h): 59% and 58.82%
- BPRS Guilt Feelings summed score (IDR n=8, 3 h): 14
- BPRS Tension improvement (points) (IDR n=8, 3 h): 5
- BPRS Tension percentage improvement (IDR n=8, 3 h): 31% and 31.25%
- BPRS Tension summed score (IDR n=8, 3 h): 11
- BPRS Anxiety improvement (points) (IDR n=8, Day 1): 21
- BPRS Anxiety percentage improvement (IDR n=8, Day 1): 57% and 56.76%
- BPRS Anxiety summed score (IDR n=8, Day 1): 16
- BPRS Blunted Affect improvement (points) (IDR n=8, Day 1): 7
- BPRS Blunted Affect percentage improvement (IDR n=8, Day 1): 47% and 46.67%
- BPRS Blunted Affect summed score (IDR n=8, Day 1): 8
- BPRS Emotional Withdrawal improvement (points) (IDR n=8, Day 1): 5
- BPRS Emotional Withdrawal percentage improvement (IDR n=8, Day 1): 38% and 38.46%
- BPRS Emotional Withdrawal summed score (IDR n=8, Day 1): 8
- BPRS Guilt Feelings improvement (points) (IDR n=8, Day 1): 23
- BPRS Guilt Feelings percentage improvement (IDR n=8, Day 1): 68% and 67.65%
- BPRS Guilt Feelings summed score (IDR n=8, Day 1): 11
- BPRS Tension improvement (points) (IDR n=8, Day 1): 5
- BPRS Tension percentage improvement (IDR n=8, Day 1): 31% and 31.25%
- BPRS Tension summed score (IDR n=8, Day 1): 11
- MADRS Concentration Difficulties improvement (points) (IDR n=8, Day 1): 29
- MADRS Concentration Difficulties percentage improvement (IDR n=8, Day 1): 97% and 96.67%
- MADRS Concentration Difficulties summed score (IDR n=8, Day 1): 1
- MADRS Inability to Feel improvement (points) (IDR n=8, Day 1): 34
- MADRS Inability to Feel percentage improvement (IDR n=8, Day 1): 94% and 94.44%
- MADRS Inability to Feel summed score (IDR n=8, Day 1): 2
- MADRS Inner Tension improvement (points) (IDR n=8, Day 1): 20
- MADRS Inner Tension percentage improvement (IDR n=8, Day 1): 77% and 76.92%
- MADRS Inner Tension summed score (IDR n=8, Day 1): 6
- MADRS Lassitude improvement (points) (IDR n=8, Day 1): 22
- MADRS Lassitude percentage improvement (IDR n=8, Day 1): 81% and 81.48%
- MADRS Lassitude summed score (IDR n=8, Day 1): 5
- MADRS Pessimistic Thoughts improvement (points) (IDR n=8, Day 1): 24
- MADRS Pessimistic Thoughts percentage improvement (IDR n=8, Day 1): 86% and 85.71%
- MADRS Pessimistic Thoughts summed score (IDR n=8, Day 1): 4
- MADRS Reduced Sleep improvement (points) (IDR n=8, Day 1): 13
- MADRS Reduced Sleep percentage improvement (IDR n=8, Day 1): 52%
- MADRS Reduced Sleep summed score (IDR n=8, Day 1): 12
- MADRS Suicidal Thoughts improvement (points) (IDR n=8, Day 1): 10
- MADRS Suicidal Thoughts percentage improvement (IDR n=8, Day 1): 91% and 90.91%
- MADRS Suicidal Thoughts summed score (IDR n=8, Day 1): 1
- BPRS Anxiety improvement (points) (IDR n=8, Day 7): 20
- BPRS Anxiety percentage improvement (IDR n=8, Day 7): 54% and 54.05%
- BPRS Anxiety summed score (IDR n=8, Day 7): 17
- BPRS Blunted Affect improvement (points) (IDR n=8, Day 7): 7
- BPRS Blunted Affect percentage improvement (IDR n=8, Day 7): 47% and 46.67%
- BPRS Blunted Affect summed score (IDR n=8, Day 7): 8
- BPRS Emotional Withdrawal improvement (points) (IDR n=8, Day 7): 5
- BPRS Emotional Withdrawal percentage improvement (IDR n=8, Day 7): 38% and 38.46%
- BPRS Emotional Withdrawal summed score (IDR n=8, Day 7): 8
- BPRS Guilt Feelings improvement (points) (IDR n=8, Day 7): 24
- BPRS Guilt Feelings percentage improvement (IDR n=8, Day 7): 71% and 70.59%
- BPRS Guilt Feelings summed score (IDR n=8, Day 7): 10
- BPRS Tension improvement (points) (IDR n=8, Day 7): 6
- BPRS Tension percentage improvement (IDR n=8, Day 7): 38% and 37.50%
- BPRS Tension summed score (IDR n=8, Day 7): 10
- MADRS Concentration Difficulties improvement (points) (IDR n=8, Day 7): 21
- MADRS Concentration Difficulties percentage improvement (IDR n=8, Day 7): 70%
- MADRS Concentration Difficulties summed score (IDR n=8, Day 7): 9
- MADRS Inability to Feel improvement (points) (IDR n=8, Day 7): 30
- MADRS Inability to Feel percentage improvement (IDR n=8, Day 7): 83% and 83.33%
- MADRS Inability to Feel summed score (IDR n=8, Day 7): 6
- MADRS Inner Tension improvement (points) (IDR n=8, Day 7): 14
- MADRS Inner Tension percentage improvement (IDR n=8, Day 7): 54% and 53.85%
- MADRS Inner Tension summed score (IDR n=8, Day 7): 12
- MADRS Lassitude improvement (points) (IDR n=8, Day 7): 24
- MADRS Lassitude percentage improvement (IDR n=8, Day 7): 89% and 88.89%
- MADRS Lassitude summed score (IDR n=8, Day 7): 3
- MADRS Pessimistic Thoughts improvement (points) (IDR n=8, Day 7): 25
- MADRS Pessimistic Thoughts percentage improvement (IDR n=8, Day 7): 89% and 89.29%
- MADRS Pessimistic Thoughts summed score (IDR n=8, Day 7): 3
- MADRS Reduced Sleep improvement (points) (IDR n=8, Day 7): 16
- MADRS Reduced Sleep percentage improvement (IDR n=8, Day 7): 64%
- MADRS Reduced Sleep summed score (IDR n=8, Day 7): 9
- MADRS Suicidal Thoughts improvement (points) (IDR n=8, Day 7): 8
- MADRS Suicidal Thoughts percentage improvement (IDR n=8, Day 7): 73% and 72.73%
- MADRS Suicidal Thoughts summed score (IDR n=8, Day 7): 3
- patients with MADRS remission (primary endpoint) (IDR n=8, day seven): 87.5%
- SAEs reported (Part A): No SAEs
- safety laboratory analyses, vital signs, psychiatric safety assessments, measures of cognitive function (Part A and Part B): No clinically significant changes
- patients who experienced at least one ADR (Part A, in both groups (12 mg and 18 mg)): 3 of 4
- SAEs reported (Part B IDR): No SAEs
- patients who experienced at least one ADR (Part B IDR n=8): 87.5%
- patients achieving remission (fraction) (day 1): 8/8
- patients achieving remission (fraction) (within 2 h after dosing): ⅝
